Data taken from PubChem BioAssay AID256 (DTP/NCI, 2004).
Where “and” joins values, the source holds several entries; their conditions need not be identical. Equal entries are not always repeated. Toxic doses and inconclusive results are not listed. The calls were made as follows: active = survival T/C of 150% or more; inactive = T/C below 125% in these data.

Test system: CD2F1 mice, L1210 leukemia ip, survival T/C
Assay: NCI In Vivo Anticancer Drug Screen. Data for tumor model L1210 Leukemia (intraperitoneal) in CD2F1 (CDF1) mice
Settings: higher = longer survival
Method in brief: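 Implant tumor; dose compound or vehicle; measure endpoint in both groups; report treated divided by control.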

[1] = endpoint: mean survival time, dose: 25.0 mg/kg/injection, schedule: Q01DX009 (ip), vehicle: saline
[2] = endpoint: mean survival time, dose: 50.0 mg/kg/injection, schedule: Q01DX009 (ip), vehicle: saline
[3] = endpoint: mean survival time, dose: 100.0 mg/kg/injection, schedule: Q04DX002 (ip), vehicle: saline with Tween-80
[4] = endpoint: mean survival time, dose: 400.0 mg/kg/injection, schedule: Q04DX002 (ip), vehicle: saline with Tween-80
[5] = endpoint: mean survival time, dose: 100.0 mg/kg/injection, schedule: Q04DX003 (ip), vehicle: saline
[6] = endpoint: mean survival time, dose: 200.0 mg/kg/injection, schedule: Q04DX003 (ip), vehicle: saline
[7] = endpoint: mean survival time, dose: 400.0 mg/kg/injection, schedule: Q04DX003 (ip), vehicle: saline
[8] = endpoint: mean survival time, dose: 200.0 mg/kg/injection, schedule: Q04DX002 (ip), vehicle: saline with Tween-80
[9] = endpoint: mean survival time, dose: 100.0 mg/kg/injection, schedule: Q01DX001 (ip), vehicle: saline with Tween-80
[10] = endpoint: mean survival time, dose: 200.0 mg/kg/injection, schedule: Q01DX001 (ip), vehicle: saline with Tween-80
[11] = endpoint: mean survival time, dose: 400.0 mg/kg/injection, schedule: Q01DX001 (ip), vehicle: saline with Tween-80
[12] = endpoint: mean survival time, dose: 100.0 mg/kg/injection, schedule: Q04DX003 (ip), vehicle: saline with Tween-80
[13] = endpoint: mean survival time, dose: 50.0 mg/kg/injection, schedule: Q04DX002 (ip), vehicle: saline with Tween-80

Measured: T/C

COC(=O)C1=CCCN(C)C1
inactive: endpoint: mean survival time, dose: 12.5 mg/kg/injection, schedule: Q01DX009 (ip), vehicle: saline 98 % of control | [1] 104 % of control | [2] 98 % of control

O=C([O-])[O-].O=S(=O)(O)O.[Co+3].[NH2-].[NH2-].[NH2-].[NH2-]
inactive: [3] 100 % of control | [4] 107 % of control

CO/N=C/C1OC(n2ccc(=O)[nH]c2=O)C2OC(C)(C)OC12 (centres undefined)
inactive: endpoint: median survival time, dose: 12.5 mg/kg/injection, schedule: Q01DX005 (ip), vehicle: Klucel (hydroxypropylcellulose) (HPC) 100 % of control | endpoint: median survival time, dose: 25.0 mg/kg/injection, schedule: Q01DX005 (ip), vehicle: Klucel (hydroxypropylcellulose) (HPC) 110 % of control | endpoint: median survival time, dose: 50.0 mg/kg/injection, schedule: Q01DX005 (ip), vehicle: Klucel (hydroxypropylcellulose) (HPC) 107 % of control | endpoint: median survival time, dose: 100.0 mg/kg/injection, schedule: Q01DX005 (ip), vehicle: Klucel (hydroxypropylcellulose) (HPC) 101 % of control

CCOC(=O)C(N)CSCc1ccccc1 (centres undefined)
inactive: [5] 103 % of control | [6] 97 % of control | [7] 101 % of control

C/C(=N\NC(N)=S)C1=C(O)C(Cc2ccccc2)NC1=O (centres undefined)
inactive: [3] 100 % of control | [8] 100 % of control | [4] 100 % of control

O=C(O)C1C2CC(C1C(=O)O)C(C(=O)O)C2C(=O)O (centres undefined)
inactive: [9] 94 % of control | endpoint: mean survival time, dose: 100.0 mg/kg/injection, schedule: Q01DX009 (ip), vehicle: saline with Tween-80 87 % of control | [10] 88 % of control | endpoint: mean survival time, dose: 200.0 mg/kg/injection, schedule: Q01DX009 (ip), vehicle: saline with Tween-80 87 % of control | [11] 95 % of control

O=[N+]([O-])Nc1ccc(C(c2ccc(N[N+](=O)[O-])cc2)c2ccc([N+](=O)[O-])cc2)cc1
inactive: [3] 95 % of control | [8] 88 % of control | [4] 88 % of control

CN(C)C=NC1(c2ccccc2)CCCCC1
inactive: endpoint: mean survival time, dose: 25.0 mg/kg/injection, schedule: Q04DX003 (ip), vehicle: saline with Tween-80 97 % of control | endpoint: mean survival time, dose: 50.0 mg/kg/injection, schedule: Q04DX003 (ip), vehicle: saline with Tween-80 92 % of control | [12] 91 % of control and 97 % of control

CN(C)C(=O)c1cccc(NC(=O)NCc2cccc(N3C(N)=NC(N)=NC3(C)C)c2)c1
inactive: [1] 94 % of control | [2] 95 % of control

COC(=O)c1cncn1C1c2ccccc2-c2ccccc21
inactive: [13] 103 % of control | [9] 86 % of control | [3] 98 % of control | [10] 91 % of control | [8] 95 % of control | [11] 91 % of control

COC(=O)/C=C/c1ccc(O)cc1
inactive: endpoint: mean survival time, dose: 100.0 mg/kg/injection, schedule: Q01DX001 (ip), vehicle: saline sonified 102 % of control | [3] 101 % of control | endpoint: mean survival time, dose: 200.0 mg/kg/injection, schedule: Q01DX001 (ip), vehicle: saline sonified 102 % of control | [8] 101 % of control | endpoint: mean survival time, dose: 400.0 mg/kg/injection, schedule: Q01DX001 (ip), vehicle: saline sonified 102 % of control | [4] 96 % of control

CCC(=O)Nc1nn[nH]n1
inactive: [3] 105 % of control | [8] 102 % of control | [4] 94 % of control

COC(=O)C1CCC[N+](C)(C)C1 (centres undefined)
inactive: [1] 100 % of control | [2] 93 % of control

ON(C(=Nc1ccc(Cl)cc1)c1ccccc1)c1ccccc1
inactive: endpoint: mean survival time, dose: 100.0 mg/kg/injection, schedule: Q01DX001 (ip), vehicle: saline 105 % of control | [5] 100 % of control | endpoint: mean survival time, dose: 200.0 mg/kg/injection, schedule: Q01DX001 (ip), vehicle: saline 97 % of control | [6] 102 % of control | endpoint: mean survival time, dose: 400.0 mg/kg/injection, schedule: Q01DX001 (ip), vehicle: saline 100 % of control | [7] 100 % of control

COc1cccc(NC2=NCCO2)c1
inactive: [12] 96 % of control | endpoint: mean survival time, dose: 200.0 mg/kg/injection, schedule: Q04DX003 (ip), vehicle: saline with Tween-80 98 % of control

CN(CCOS(C)(=O)=O)CCOS(C)(=O)=O
inactive: endpoint: mean survival time, dose: 5.0 mg/kg/injection, schedule: Q01DX001 (ip), vehicle: saline 121 % of control

CN(C)CCC(=O)C(c1ccccc1)c1ccccc1
inactive: endpoint: mean survival time, dose: 75.0 mg/kg/injection, schedule: Q01DX001 (ip), vehicle: saline 97 % of control | endpoint: mean survival time, dose: 150.0 mg/kg/injection, schedule: Q01DX001 (ip), vehicle: saline 101 % of control

O=C1OC(c2ccccc2)(C2(c3ccccc3)OC(=O)c3ccccc32)c2ccccc21 (centres undefined)
inactive: [12] 89 % of control

CC(=O)C1CCC2C3CC=C4CC(SC(=N)N)CCC4(C)C3CCC12C (centres undefined)
inactive: endpoint: mean survival time, dose: 75.0 mg/kg/injection, schedule: Q01DX001 (ip), vehicle: steriod suspending solution 102 % of control | endpoint: mean survival time, dose: 150.0 mg/kg/injection, schedule: Q01DX001 (ip), vehicle: steriod suspending solution 104 % of control | endpoint: mean survival time, dose: 300.0 mg/kg/injection, schedule: Q01DX001 (ip), vehicle: steriod suspending solution 91 % of control

S=P(c1ccccc1)(N1CC1)N1CC1
inactive: endpoint: mean survival time, dose: 6.25 mg/kg/injection, schedule: Q01DX009 (ip), vehicle: Klucel (hydroxypropylcellulose) (HPC) 102 % of control | endpoint: mean survival time, dose: 6.25 mg/kg/injection, schedule: Q01DX009 (ip), vehicle: other 95 % of control | endpoint: mean survival time, dose: 12.5 mg/kg/injection, schedule: Q01DX009 (ip), vehicle: Klucel (hydroxypropylcellulose) (HPC) 102 % of control | endpoint: mean survival time, dose: 12.5 mg/kg/injection, schedule: Q01DX009 (ip), vehicle: other 118 % of control and 104 % of control | endpoint: mean survival time, dose: 22.0 mg/kg/injection, schedule: Q01DX009 (ip), vehicle: other 115 % of control | endpoint: mean survival time, dose: 25.0 mg/kg/injection, schedule: Q01DX009 (ip), vehicle: Klucel (hydroxypropylcellulose) (HPC) 104 % of control | endpoint: mean survival time, dose: 25.0 mg/kg/injection, schedule: Q01DX009 (ip), vehicle: other 106 % of control | endpoint: mean survival time, dose: 25.0 mg/kg/injection, schedule: Q04DX002 (ip), vehicle: saline with Tween-80 96 % of control | endpoint: mean survival time, dose: 44.0 mg/kg/injection, schedule: Q04DX002 (ip), vehicle: other 97 % of control | endpoint: mean survival time, dose: 44.0 mg/kg/injection, schedule: Q04DX003 (ip), vehicle: other 106 % of control | endpoint: mean survival time, dose: 50.0 mg/kg/injection, schedule: Q01DX009 (ip), vehicle: Klucel (hydroxypropylcellulose) (HPC) 118 % of control | endpoint: mean survival time, dose: 50.0 mg/kg/injection, schedule: Q01DX009 (ip), vehicle: other 123 % of control | [13] 103 % of control and 106 % of control | endpoint: mean survival time, dose: 66.0 mg/kg/injection, schedule: Q04DX002 (ip), vehicle: other 109 % of control | endpoint: mean survival time, dose: 66.0 mg/kg/injection, schedule: Q04DX003 (ip), vehicle: other 118 % of control | endpoint: mean survival time, dose: 75.0 mg/kg/injection, schedule: Q01DX009 (ip), vehicle: other 101 % of control | endpoint: mean survival time, dose: 100.0 mg/kg/injection, schedule: Q04DX002 (ip), vehicle: other 115 % of control | [3] 117 % of control | endpoint: mean survival time, dose: 100.0 mg/kg/injection, schedule: Q04DX003 (ip), vehicle: other 108 % of control | endpoint: mean survival time, dose: 118.0 mg/kg/injection, schedule: Q01DX001 (ip), vehicle: other 100 % of control | endpoint: mean survival time, dose: 150.0 mg/kg/injection, schedule: Q04DX002 (ip), vehicle: other 103 % of control | endpoint: mean survival time, dose: 178.0 mg/kg/injection, schedule: Q01DX001 (ip), vehicle: other 97 % of control | endpoint: mean survival time, dose: 266.0 mg/kg/injection, schedule: Q01DX001 (ip), vehicle: other 109 % of control | endpoint: mean survival time, dose: 400.0 mg/kg/injection, schedule: Q01DX001 (ip), vehicle: other 100 % of control
